Ends that are not written are not given here.
What was measured:
[1] = tested on: fresh erythrocytes from the ICR mice; assay: Hemolytic assay, mouse erythrocytes; format: cell-based; settings: mouse blood cells, 30 min, 37°C, A570
Protocol: (§1) Hemolytic activity of peptides against fresh erythrocytes from the ICR mice (Mus musculus), the lizards (Eremias multiocellata) or the pigeons (Columba livia domestica) was assayed according to the standard method (Zhu et al., [2012a]). An aliquot of freshly prepared venom was diluted with 0.9% NaCl to a protein concentration of ~5 mg/mL for use. The percentage of hemolysis is determined as (Apep-Ablank)/(Atot-Ablank) × 100, in which “A” represents absorbance measured at 570 nm. Ablank and Aprep were evaluated in the absence or presence of the venom or peptides. 100% hemolysis (Atot) was obtained in the presence of 1% Triton X-100.

[2] = tested on: Escherichia coli DH5α; assay: Inhibition-zone assay (CL); format: cell-based; settings: EC DH5α, N.A. = no activity at 0.8 nmol peptide each well
How it was run: (§2)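 Bacteria (~2 × 10^6 cells/ml) were seeded in 0.8% soft-agar medium (LB, Nutrient Broth or GYM) and grown at 30 or 37°C. Three peptide doses were placed in separate 2 mm wells, and inhibition zones were measured after overnight incubation. CL was calculated from the slope and intercept of a d^2 versus log n plot.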

[3] = tested on: Escherichia coli TOP10; assay: Inhibition-zone assay (CL); format: cell-based; settings: EC TOP10, N.A. = no activity at 0.8 nmol peptide each well
How it was run: as §2

[4] = tested on: Escherichia coli JM109; assay: Inhibition-zone assay (CL); format: cell-based; settings: EC JM109, N.A. = no activity at 0.8 nmol peptide each well
How it was run: as §2

[5] = Serum stability; format: in vitro ADME; settings: fresh mouse serum, 37°C, read-out inhibition zone on Micrococcus luteus plates, triplicate
Protocol: To assess serum stability, peptides were dissolved in H2O or fresh mouse serum for the indicated times at 37°C and their residual activity was measured by the inhibition-zone assay (Hultmark, [1998]).

[6] = tested on: Pseudomonas solanacearum
[7] = tested on: Pseudomonas aeruginosa FRD1; assay: Inhibition-zone assay (CL); format: cell-based; settings: PA FRD1, N.A. = no activity at 0.8 nmol peptide each well
How it was run: as §2

[8] = tested on: Pseudomonas aeruginosa 374; assay: Inhibition-zone assay (CL); format: cell-based; settings: PA 374, N.A. = no activity at 0.8 nmol peptide each well
How it was run: as §2

[9] = tested on: Serratia marcescens ATCC 14041; assay: Inhibition-zone assay (CL); format: cell-based; settings: SMAR ATCC 14041, N.A. = no activity at 0.8 nmol peptide each well
How it was run: as §2

[10] = tested on: Candida albicans 4257; assay: Inhibition-zone assay (CL); format: cell-based; settings: CA 4257, 28°C, N.A. = no activity at 0.8 nmol peptide each well
[11] = tested on: Candida albicans JX1016; assay: Inhibition-zone assay (CL); format: cell-based; settings: CA JX1016, 28°C, N.A. = no activity at 0.8 nmol peptide each well
[12] = tested on: Aspergillus nidulans A28; assay: Inhibition-zone assay (CL); format: cell-based; settings: ANID A28, 28°C, N.A. = no activity at 0.8 nmol peptide each well
[13] = tested on: Pichia pastoris X33; assay: Inhibition-zone assay (CL); format: cell-based; settings: PP X33, 28°C, N.A. = no activity at 0.8 nmol peptide each well
[14] = tested on: Candida albicans JX1195; assay: Inhibition-zone assay (CL); format: cell-based; settings: CA JX1195, 28°C, N.A. = no activity at 0.8 nmol peptide each well
[15] = tested on: Aspergillus nidulans Rcho15; assay: Inhibition-zone assay (CL); format: cell-based; settings: ANID Rcho15, 28°C, N.A. = no activity at 0.8 nmol peptide each well
[16] = tested on: fresh erythrocytes from the pigeons; assay: Hemolytic assay, bird (pigeon) erythrocytes; format: cell-based, Columba livia domestica; settings: peptide 25 μM; bird blood cells; 30 min, 37°C
Protocol: as §1

[17] = peptide 3.125 μM, mean ± S.D., triplicate

| Compound | hemolysis [1, 17] | Lethal concentration (CL) [2] [µM] | Lethal concentration (CL) [3] [µM] | Lethal concentration (CL) [4] [µM] | Lethal concentration (CL) [6] [µM] | Lethal concentration (CL) [7] [µM] | Lethal concentration (CL) [8] [µM] | Lethal concentration (CL) [10] [µM] | Lethal concentration (CL) [11] [µM] | hemolysis ([1]; peptide 6.25 μM) [%] | Lethal concentration (CL) [12] [µM] | Lethal concentration (CL) [13] [µM] | other results |
| --- | --- | --- | --- | --- | --- | --- | --- | --- | --- | --- | --- | --- | --- |
| CC[C@H](C)[C@H](NC(=O)CN)C(=O)NCC(=O)N[C@@H](C)C(=O)N[C@H](C(=O)N[C@@H](CC(C)C)C(=O)N[C@@H](CCCCN)C(=O)N[C@H](C(=O)N[C@@H](CC(C)C)C(=O)N[C@H](C(=O)N[C@H](C(=O)NCC(=O)N[C@@H](CC(C)C)C(=O)N1CCC[C@H]1C(=O)N[C@@H](C)C(=O)N[C@@H](CC(C)C)C(=O)N[C@H](C(=O)N[C@@H](CO)C(=O)N[C@@H](Cc1c[nH]c2ccccc12)C(=O)N[C@H](C(=O)N[C@@H](CCCCN)C(=O)N[C@@H](CCCNC(=N)N)C(=O)N[C@@H](CCCCN)C(=O)N[C@@H](CCCNC(=N)N)C(=O)N[C@@H](CCC(N)=O)C(=O)N[C@@H](CCC(N)=O)C(N)=O)[C@@H](C)CC)[C@@H](C)CC)[C@@H](C)O)[C@@H](C)O)C(C)C)C(C)C [Melittin, reference compound] | complete hemolysis | 18.20 | 13.80 | 23.53 | – | – | – | – | – | – | – | – | residual activity after incubation in mouse serum ([5]; 24 h, 0.72-1.44 nmol each well): only little or no activity remained |
| FFGHLFKLATKIIPSFFRRKNQ [MAC-22] | – | – | – | – | 22.08 | 18.75 | 18.75 | – | – | – | – | – | – |
| FFGHLFKLATKIIPSLFQRKKE [MUC-22] | – | – | – | – | 21.61 | 16.86 | 16.86 | – | – | – | – | – | Lethal concentration (CL) [9]: 58.93 µM |
| FLFSLIPSAISGLINAFK-NH2 [MeuFSPL-2] | – | – | 11.58 | – | – | – | – | 12.72 | 23.35 | – | – | – | residual activity after incubation in mouse serum ([5]; 4 h, 0.72 nmol/well): entirely lost |
| FLFSLIPSAISGLISAFK-NH2 [MeuFSPL-1] | 61 ± 2.5% | – | 9.94 | – | – | – | – | 14.64 | 28.38 | ~100 | 14.84 | 8.21 | – |
| FLFSLIPSAISGLISAFKGRRKRDLN-NH2 [MarMEL] | 66 ± 1.2% | 5.48 | 4.10 | 5.55 | – | – | – | 6.84 | 14.29 | ~100 | 7.14 | 3.57 | Lethal concentration (CL) [14]: 5.65 µM; Lethal concentration (CL) [15]: 5.65 µM; hemolysis [16]: nearly complete hemolysis |
